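Dose response: 5 concentrations. Exposure: 48 h. Format: 96-well plates. Endpoint: linear interpolation; highest concentration if not reached. Here, GI50 denotes the concentration required for 50% inhibition of growth.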 Active and inactive are the calls of the source. Cut-off read from the data, not from the text of the source: active = GI50 up to about 1.1 µM and inactive = higher.

The values below come from ChEMBL document CHEMBL1201862, “PubChem BioAssay data set” (2004).

Some test systems named below: Hs-578T; RPMI-8226; PC-3; A498; 786-0; T47D; U-251; M14; SNB-75; OVCAR-4; COLO 205; NCI-H226; NCI-H23; LOX IMVI; BT-549; OVCAR-5; Malme-3M; HCC 2998; HL-60.
What all share (assay): inhibition of tumour cell growth, NCI panel, 48 h

Take `O=C(CON1C(=O)c2ccccc2C1=O)c1ccccc1`: the GI50 in the experiment with Hs-578T was > 100 µM (inactive); in the experiment on RPMI-8226 it was 18.6 µM (inactive); with PC-3 it was > 100 µM (inactive); in the experiment on A498 it was > 100 µM (inactive); with 786-0, 32.4 µM (inactive); with T47D, 22.3 µM (inactive). Also, the GI50 in the experiment with U-251 is > 100 µM (inactive); in the experiment with M14, 57.1 µM (inactive); in the experiment with SNB-75, 97.5 µM (inactive); with OVCAR-4, 77.8 µM (inactive); in the experiment with COLO 205, 56.4 µM (inactive); in the experiment on NCI-H226 it was > 100 µM (inactive). In addition, the GI50 in the experiment with NCI-H23 is > 100 µM (inactive); with LOX IMVI, 35.6 µM (inactive); in the experiment with BT-549 it was > 100 µM (inactive); in the experiment with OVCAR-5 it was > 100 µM (inactive); in the experiment with Malme-3M, 21.1 µM (inactive).
As to `COc1ccc2c(c1)-c1[nH]c3ccccc3c1CC2`, the GI50 in the experiment with Hs-578T was 15.4 µM (inactive); in the experiment with HCC 2998, 10.2 µM (inactive); in the experiment on RPMI-8226, 20.4 µM (inactive); with PC-3, 14.9 µM (inactive); in the experiment on 786-0, 16.4 µM (inactive); in the experiment on T47D it was 13.5 µM (inactive). The GI50 in the experiment on U-251 is 16.6 µM (inactive); in the experiment with M14, 17.4 µM (inactive); in the experiment with SNB-75, 15.2 µM (inactive); with OVCAR-4 it was 17.1 µM (inactive); in the experiment on COLO 205, 16.6 µM (inactive); in the experiment on NCI-H226, 13.3 µM (inactive). Moreover, the GI50 in the experiment with NCI-H23 was 13.6 µM (inactive); in the experiment on LOX IMVI it was 18.2 µM (inactive); in the experiment on BT-549, 17.2 µM (inactive); in the experiment on OVCAR-5 it was 15.7 µM (inactive); in the experiment on Malme-3M, 12.4 µM (inactive).
As for `O=C(CN1c2ccccc2Sc2ccccc21)N1CCNCC1`, the GI50 was > 100 µM (inactive) in the experiment with Hs-578T; > 100 µM (inactive) with RPMI-8226; 73.1 µM (inactive) in the experiment on PC-3; 34.6 µM (inactive) in the experiment on A498; > 100 µM (inactive) in the experiment on 786-0; 71.9 µM (inactive) with T47D. Besides, the GI50 in the experiment on U-251 is 56.1 µM (inactive); in the experiment with M14, > 100 µM (inactive); in the experiment with SNB-75, 30.9 µM (inactive); with OVCAR-4, > 100 µM (inactive); in the experiment on COLO 205, > 100 µM (inactive); in the experiment on NCI-H226, 78.7 µM (inactive). The GI50 with NCI-H23, in the experiment with LOX IMVI, with BT-549, in the experiment with OVCAR-5, in the experiment with HL-60 and in the experiment with Malme-3M was > 100 µM (inactive) throughout.
Take `C#CCCCCC#Cc1ccccc1C(=O)C=[N+]=[N-]`: the GI50 in the experiment on Hs-578T is > 100 µM (inactive); in the experiment on HCC 2998, > 100 µM (inactive); in the experiment with RPMI-8226, 16.5 µM (inactive); in the experiment with PC-3 it was > 100 µM (inactive); with A498, > 100 µM (inactive); in the experiment on 786-0 it was > 100 µM (inactive). The GI50 is > 100 µM (inactive) in the experiment on T47D; > 100 µM (inactive) in the experiment with U-251; > 100 µM (inactive) in the experiment on M14; 95.1 µM (inactive) in the experiment on SNB-75; > 100 µM (inactive) in the experiment with OVCAR-4; > 100 µM (inactive) in the experiment with COLO 205. The GI50 in the experiment with NCI-H226, with NCI-H23, in the experiment with BT-549 and in the experiment with OVCAR-5 was > 100 µM (inactive) each time.
As to `CC(=O)N1c2ccccc2[C@H]2CCc3c([nH]c4ccccc34)[C@H]21`, the GI50 in the experiment with Hs-578T is 21.9 µM (inactive); with RPMI-8226, 6.27 µM (inactive); in the experiment on PC-3 it was 23 µM (inactive); in the experiment on A498, 17.5 µM (inactive); with 786-0 it was 15 µM (inactive); in the experiment with T47D, 18.7 µM (inactive). Also, the GI50 in the experiment on U-251 is 12.7 µM (inactive); in the experiment with M14, 14.3 µM (inactive); in the experiment with SNB-75, 18.4 µM (inactive); with COLO 205, 13.2 µM (inactive); with NCI-H226, 13.9 µM (inactive); in the experiment with NCI-H23, 9.53 µM (inactive). The GI50 with LOX IMVI was 11.6 µM (inactive); in the experiment with BT-549, 11 µM (inactive); in the experiment with OVCAR-5 it was 26.9 µM (inactive); with HL-60 it was 12.4 µM (inactive); in the experiment with Malme-3M it was 14.1 µM (inactive).
Consider `COc1cc2c(cc1O)CCN[C@@]21CS[C@H]2c3c(OC(C)=O)c(C)c4c(c3C(COC1=O)N1C2C2NC(Cc3cc(C)c(OC)c(O)c32)[C@@H]1O)OCO4` (some centres undefined), for which the GI50 with Hs-578T, in the experiment with RPMI-8226, with PC-3, in the experiment with A498, in the experiment with 786-0 and with T47D was < 0.01 µM (active) throughout. In addition, the GI50 with U-251, in the experiment on M14, with OVCAR-4, in the experiment on COLO 205, in the experiment on NCI-H23 and in the experiment with BT-549 was < 0.01 µM (active) in each case. The GI50 in the experiment on OVCAR-5 and in the experiment on HL-60 was < 0.01 µM (active) in each case.
On to `CCOC(=O)c1ccc(-c2onc(C)c2Br)[nH]1`, for which the GI50 with Hs-578T is 70.5 µM (inactive); in the experiment on HCC 2998, > 100 µM (inactive); in the experiment on RPMI-8226, 86.7 µM (inactive); in the experiment with PC-3 it was 60 µM (inactive); with A498 it was 49.9 µM (inactive); in the experiment on 786-0 it was 43.4 µM (inactive). For the same compound, the GI50 was 30 µM (inactive) with T47D; 36.4 µM (inactive) in the experiment on U-251; 62.7 µM (inactive) in the experiment on M14; 41.7 µM (inactive) in the experiment on SNB-75; 43.2 µM (inactive) in the experiment with OVCAR-4; 50.2 µM (inactive) in the experiment on COLO 205. Besides, the GI50 was 46.8 µM (inactive) in the experiment on NCI-H23, 34.7 µM (inactive) with BT-549, > 100 µM (inactive) in the experiment on OVCAR-5 and 79.6 µM (inactive) with Malme-3M.
In the case of `C[C@H](C(=O)N1C(=O)O[C@@H](c2ccccc2)[C@H]1C)[C@H](c1ccccc1)N(Cc1ccccc1)OC(=O)c1ccccc1`, the GI50 in the experiment with Hs-578T was 84.5 µM (inactive); with HCC 2998, 21.6 µM (inactive); in the experiment on RPMI-8226 it was 21.7 µM (inactive); with PC-3, 53.5 µM (inactive); in the experiment with A498 it was > 100 µM (inactive); with 786-0, 57.4 µM (inactive). For the same compound, the GI50 in the experiment with T47D was 15.8 µM (inactive); with U-251, 31.9 µM (inactive); in the experiment on M14 it was 24.3 µM (inactive); in the experiment with SNB-75, 29.9 µM (inactive); in the experiment on OVCAR-4, 21 µM (inactive); in the experiment with COLO 205 it was 38.5 µM (inactive). The GI50 with NCI-H226 is 38.4 µM (inactive); in the experiment on NCI-H23, 65.3 µM (inactive); with LOX IMVI, 45.3 µM (inactive); with BT-549, 38.3 µM (inactive); in the experiment on OVCAR-5, 68.1 µM (inactive); in the experiment on HL-60, 29 µM (inactive). The GI50 in the experiment on Malme-3M was > 100 µM (inactive).
Regarding `CCc1n[nH]c(=O)n1N=C(c1ccccc1)c1ccccc1`, the GI50 in the experiment on Hs-578T, in the experiment with RPMI-8226, with PC-3, in the experiment on A498, with 786-0 and with T47D was > 100 µM (inactive) each time. Also, the GI50 with U-251, in the experiment on M14, in the experiment on OVCAR-4, in the experiment with COLO 205, in the experiment on NCI-H226 and in the experiment on NCI-H23 was > 100 µM (inactive) each time. Further, the GI50 was > 100 µM (inactive) with LOX IMVI; > 100 µM (inactive) in the experiment on BT-549; 58.1 µM (inactive) in the experiment with OVCAR-5; > 100 µM (inactive) with HL-60; > 100 µM (inactive) in the experiment on Malme-3M.
Regarding `COc1ccc2oc3c(C)cc4c(OC)nnc(OC)c4c3c2c1`, the GI50 is 31 µM (inactive) with Hs-578T; 16.7 µM (inactive) with HCC 2998; 4.93 µM (inactive) in the experiment with RPMI-8226; 12.8 µM (inactive) in the experiment with PC-3; 17.4 µM (inactive) with A498; 7.52 µM (inactive) in the experiment with 786-0. Further, the GI50 is 29.9 µM (inactive) in the experiment with T47D; 1.98 µM (inactive) in the experiment with U-251; 16.5 µM (inactive) in the experiment with M14; 4.88 µM (inactive) in the experiment with SNB-75; 34.6 µM (inactive) in the experiment on OVCAR-4; 10.8 µM (inactive) in the experiment with COLO 205. Also, the GI50 in the experiment on NCI-H226 was 30.8 µM (inactive); in the experiment on NCI-H23, 17.9 µM (inactive); in the experiment on LOX IMVI, 5.55 µM (inactive); with BT-549, > 100 µM (inactive); in the experiment on OVCAR-5, > 100 µM (inactive); with HL-60 it was 13.5 µM (inactive). In addition, the GI50 with Malme-3M is 9.95 µM (inactive).
Regarding `CC(O)CCNC(=O)Nc1c(C(F)(F)F)cc(-c2ccccc2)[nH]c1=O` (centres undefined), the GI50 in the experiment on Hs-578T, in the experiment on HCC 2998, in the experiment on RPMI-8226, in the experiment on PC-3, with A498 and with 786-0 was > 100 µM (inactive) throughout. In addition, the GI50 in the experiment on T47D, in the experiment on U-251, in the experiment on M14, in the experiment with SNB-75, in the experiment with OVCAR-4 and with COLO 205 was > 100 µM (inactive) throughout. The GI50 in the experiment on NCI-H226 is > 100 µM (inactive); in the experiment on NCI-H23, > 100 µM (inactive); in the experiment on LOX IMVI, > 100 µM (inactive); in the experiment with BT-549 it was > 100 µM (inactive); with OVCAR-5 it was > 100 µM (inactive); in the experiment on HL-60, 67.9 µM (inactive). The GI50 in the experiment on Malme-3M was 47.3 µM (inactive).
